Experimental data as given in PubChem BioAssay (NCI).
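Method: 48-hour compound exposure of cells in 96-well plates, five concentrations, linear interpolation of endpoints. TGI: concentration producing complete growth inhibition.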

How the values were obtained:
Assay in all cases: NCI-60 cell line screen, 48 h
OVCAR-5 ovarian = test system: OVCAR-5 ovarian
UO-31 renal = test system: UO-31 renal
HOP-18 NSCLC = test system: HOP-18 NSCLC
UACC-257 melanoma = test system: UACC-257 melanoma
K-562 leukemia = test system: K-562 leukemia
LXFL 529 NSCLC = test system: LXFL 529 NSCLC
KM12 colon = test system: KM12 colon
IGROV1 ovarian = test system: IGROV1 ovarian
M14 melanoma = test system: M14 melanoma
OVCAR-8 ovarian = test system: OVCAR-8 ovarian
SW-620 colon = test system: SW-620 colon
ACHN renal = test system: ACHN renal
HCT-15 colon = test system: HCT-15 colon
SK-OV-3 ovarian = test system: SK-OV-3 ovarian
SK-MEL-28 melanoma = test system: SK-MEL-28 melanoma
HCT-116 colon = test system: HCT-116 colon
HT29 colon = test system: HT29 colon
UACC-62 melanoma = test system: UACC-62 melanoma
NCI-H460 lung = test system: NCI-H460 lung
CCRF-CEM leukemia = test system: CCRF-CEM leukemia
SK-MEL-2 melanoma = test system: SK-MEL-2 melanoma
SF-295 CNS = test system: SF-295 CNS
M19-MEL melanoma = test system: M19-MEL melanoma
DMS 273 small cell lung = test system: DMS 273 small cell lung
XF 498 CNS = test system: XF 498 CNS
LOX IMVI melanoma = test system: LOX IMVI melanoma
SF-539 CNS = test system: SF-539 CNS
SNB-19 CNS = test system: SNB-19 CNS
HCC-2998 colon = test system: HCC-2998 colon
SR leukemia = test system: SR leukemia
COLO 205 colon = test system: COLO 205 colon
RXF-631 renal = test system: RXF-631 renal
786-0 renal = test system: 786-0 renal
SNB-75 CNS = test system: SNB-75 CNS
HL-60(TB) leukemia = test system: HL-60(TB) leukemia
U251 CNS = test system: U251 CNS
NCI-H226 lung = test system: NCI-H226 lung
NCI-H522 lung = test system: NCI-H522 lung
OVCAR-3 ovarian = test system: OVCAR-3 ovarian
DMS 114 small cell lung = test system: DMS 114 small cell lung
SK-MEL-5 melanoma = test system: SK-MEL-5 melanoma
EKVX NSCLC = test system: EKVX NSCLC
TK-10 renal = test system: TK-10 renal
HOP-92 NSCLC = test system: HOP-92 NSCLC
RXF 393 renal = test system: RXF 393 renal
HOP-62 NSCLC = test system: HOP-62 NSCLC
MOLT-4 leukemia = test system: MOLT-4 leukemia
SF-268 CNS = test system: SF-268 CNS
MALME-3M melanoma = test system: MALME-3M melanoma
NCI-H23 lung = test system: NCI-H23 lung
KM20L2 colon = test system: KM20L2 colon
SNB-78 CNS = test system: SNB-78 CNS
SN12C renal = test system: SN12C renal
RPMI-8226 leukemia = test system: RPMI-8226 leukemia
CAKI-1 renal = test system: CAKI-1 renal
A549 NSCLC = test system: A549 NSCLC
A498 renal = test system: A498 renal
DLD-1 colon = test system: DLD-1 colon
OVCAR-4 ovarian = test system: OVCAR-4 ovarian

Measured: TGI

COc1cc2c(cc1OC)C(C#N)(Cc1ccccc1)N(C(=O)c1ccccc1)C=C2 (stereo not given)
76.1 µM: RXF 393 renal
62.9 µM: SK-MEL-5 melanoma
53.2 µM: DMS 114 small cell lung
87 µM: XF 498 CNS
not listed: CAKI-1 renal | A549 NSCLC | A498 renal | DLD-1 colon | OVCAR-4 ovarian
> 100 µM: all other assays above

CCOCc1cc(=O)c2cc3c(cc2o1)OC(C)(C)CC3
not listed: SK-MEL-28 melanoma
> 100 µM: all other assays above

C=C1CCC(OC(C)=O)C2(C)C(OC(C)=O)CC3OC3(C)C2C(OC(C)=O)C2C(C)C(=O)OC2C1Cl (stereo not given)
not listed: NCI-H522 lung
> 100 µM: all other assays above
